Key:
BAF60A^YLD+SWIB [1] = molecular target: T1, BAF60A^YLD+SWIB (Homo sapiens, UniProt Q96GM5); assay: fluorescence polarization competition with PU.[…]; assay type: binding
BAF60A^YLD+SWIB [2] = molecular target: T1, BAF60A^YLD+SWIB; assay: SPR steady state, amine-coupled protein; assay type: binding

Q: For COC(=O)c1ccc(Cn2c(C)nc3cc4c(cc32)OCCO4)cc1 [PPSC-002], which IC50 (BAF60A^YLD+SWIB [1]) is on record?
A: The IC50 was 33 µM.

Q: And the Kd (BAF60A^YLD+SWIB [2])?
A: Its Kd is 22.6 µM.

Q: Which results are given for CC1=C(C(=O)Nc2cccc(C)n2)C(c2cccc(Br)c2)C2=C(CCCC2=O)N1 (stereo not shown) [PPSC-001]?
A: IC50 (BAF60A^YLD+SWIB [1]): 9.13 µM; Kd (BAF60A^YLD+SWIB [2]): 8.89 µM
